Counter-ions that a name gives are not always drawn. Like-named read-outs stand apart in the source and are kept apart here.
Key:
[1] = tested on: Thyroid hormone receptor alpha, THRA (h); assay: IPP THRA coactivator recruitment (agonist); format: biochemical, human; conditions: agonist, T3
[2] = single value or median, ref [2],[4],[6],[7],[8],[10],[11],[15],[18],[27],[34], cited from earlier work
[3] = target: T1, Adenosine receptor A2a, ADORA2A (h) (Homo sapiens, UniProt P29274); assay: IPP ADORA2A binding (agonist radioligand); conditions: control NECA
T1 construct: purchased Eurofins Cerep (SafetyScreen44-based IPP panel)
T1 sequence (P29274 whole entry): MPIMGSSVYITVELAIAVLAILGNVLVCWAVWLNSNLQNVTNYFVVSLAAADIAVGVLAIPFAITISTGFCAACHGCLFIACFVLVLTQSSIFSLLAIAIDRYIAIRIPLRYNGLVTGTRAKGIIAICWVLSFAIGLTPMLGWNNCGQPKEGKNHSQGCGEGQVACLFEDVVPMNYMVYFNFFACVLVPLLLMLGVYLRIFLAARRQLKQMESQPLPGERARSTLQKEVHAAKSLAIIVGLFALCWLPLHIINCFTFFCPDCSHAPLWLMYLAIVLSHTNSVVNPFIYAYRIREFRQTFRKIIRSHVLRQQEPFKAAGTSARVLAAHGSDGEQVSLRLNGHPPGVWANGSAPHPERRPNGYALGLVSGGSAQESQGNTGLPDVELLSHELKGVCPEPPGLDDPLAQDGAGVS

[4] = tested on: Glutamate receptor ionotropic NMDA 1 non-selective, GRIN1 (r)
HepaRG cells = assay: High-throughput transcriptomics (HTTr, TempO-Seq), HepaRG, 24 h; format: cell-based, human; conditions: HepaRG; for pod_httr_bifrost PoD: HTTr BIFROST PoD; for podl_path_minbmd PoD: HTTr minimum pathway BMD(L)
Experimental: (§1) HepG2, HepaRG, and MCF7 cells were treated with each compound for 24 h across a dose range of 7 concentrations and lysed using TempO-Seq lysis buffer (BioSpyder Technologies, proprietary kit, see [Middleton et al. 2022] for method details). Sequencing was performed using TempO-Seq (BioClavis) version 2 of the human whole transcriptome panel and analyzed as described previously in Middleton et al.

[5] = cited from earlier work
HepG2 cells [6] = assay: High-throughput transcriptomics (HTTr, TempO-Seq), HepG2, 24 h; format: cell-based, human; conditions: HepG2; for pod_httr_bifrost PoD: HTTr BIFROST PoD; for podl_path_minbmd PoD: HTTr minimum pathway BMD(L)
Experimental: as §1

MCF7 cells = assay: High-throughput transcriptomics (HTTr, TempO-Seq), MCF7, 24 h; format: cell-based, human; conditions: MCF-7; for pod_httr_bifrost PoD: HTTr BIFROST PoD; for podl_path_minbmd PoD: HTTr minimum pathway BMD(L)
Experimental: as §1

[7] = target: Voltage-dependent L-type Ca2+ channel (dihydropyridine site), CACNA1C (r) (Rattus norvegicus, UniProt P22002); format: binding
Voltage-dependent L-type Ca2+ channel (dihydropyridine site), CACNA1C (r), sequence (P22002 whole entry): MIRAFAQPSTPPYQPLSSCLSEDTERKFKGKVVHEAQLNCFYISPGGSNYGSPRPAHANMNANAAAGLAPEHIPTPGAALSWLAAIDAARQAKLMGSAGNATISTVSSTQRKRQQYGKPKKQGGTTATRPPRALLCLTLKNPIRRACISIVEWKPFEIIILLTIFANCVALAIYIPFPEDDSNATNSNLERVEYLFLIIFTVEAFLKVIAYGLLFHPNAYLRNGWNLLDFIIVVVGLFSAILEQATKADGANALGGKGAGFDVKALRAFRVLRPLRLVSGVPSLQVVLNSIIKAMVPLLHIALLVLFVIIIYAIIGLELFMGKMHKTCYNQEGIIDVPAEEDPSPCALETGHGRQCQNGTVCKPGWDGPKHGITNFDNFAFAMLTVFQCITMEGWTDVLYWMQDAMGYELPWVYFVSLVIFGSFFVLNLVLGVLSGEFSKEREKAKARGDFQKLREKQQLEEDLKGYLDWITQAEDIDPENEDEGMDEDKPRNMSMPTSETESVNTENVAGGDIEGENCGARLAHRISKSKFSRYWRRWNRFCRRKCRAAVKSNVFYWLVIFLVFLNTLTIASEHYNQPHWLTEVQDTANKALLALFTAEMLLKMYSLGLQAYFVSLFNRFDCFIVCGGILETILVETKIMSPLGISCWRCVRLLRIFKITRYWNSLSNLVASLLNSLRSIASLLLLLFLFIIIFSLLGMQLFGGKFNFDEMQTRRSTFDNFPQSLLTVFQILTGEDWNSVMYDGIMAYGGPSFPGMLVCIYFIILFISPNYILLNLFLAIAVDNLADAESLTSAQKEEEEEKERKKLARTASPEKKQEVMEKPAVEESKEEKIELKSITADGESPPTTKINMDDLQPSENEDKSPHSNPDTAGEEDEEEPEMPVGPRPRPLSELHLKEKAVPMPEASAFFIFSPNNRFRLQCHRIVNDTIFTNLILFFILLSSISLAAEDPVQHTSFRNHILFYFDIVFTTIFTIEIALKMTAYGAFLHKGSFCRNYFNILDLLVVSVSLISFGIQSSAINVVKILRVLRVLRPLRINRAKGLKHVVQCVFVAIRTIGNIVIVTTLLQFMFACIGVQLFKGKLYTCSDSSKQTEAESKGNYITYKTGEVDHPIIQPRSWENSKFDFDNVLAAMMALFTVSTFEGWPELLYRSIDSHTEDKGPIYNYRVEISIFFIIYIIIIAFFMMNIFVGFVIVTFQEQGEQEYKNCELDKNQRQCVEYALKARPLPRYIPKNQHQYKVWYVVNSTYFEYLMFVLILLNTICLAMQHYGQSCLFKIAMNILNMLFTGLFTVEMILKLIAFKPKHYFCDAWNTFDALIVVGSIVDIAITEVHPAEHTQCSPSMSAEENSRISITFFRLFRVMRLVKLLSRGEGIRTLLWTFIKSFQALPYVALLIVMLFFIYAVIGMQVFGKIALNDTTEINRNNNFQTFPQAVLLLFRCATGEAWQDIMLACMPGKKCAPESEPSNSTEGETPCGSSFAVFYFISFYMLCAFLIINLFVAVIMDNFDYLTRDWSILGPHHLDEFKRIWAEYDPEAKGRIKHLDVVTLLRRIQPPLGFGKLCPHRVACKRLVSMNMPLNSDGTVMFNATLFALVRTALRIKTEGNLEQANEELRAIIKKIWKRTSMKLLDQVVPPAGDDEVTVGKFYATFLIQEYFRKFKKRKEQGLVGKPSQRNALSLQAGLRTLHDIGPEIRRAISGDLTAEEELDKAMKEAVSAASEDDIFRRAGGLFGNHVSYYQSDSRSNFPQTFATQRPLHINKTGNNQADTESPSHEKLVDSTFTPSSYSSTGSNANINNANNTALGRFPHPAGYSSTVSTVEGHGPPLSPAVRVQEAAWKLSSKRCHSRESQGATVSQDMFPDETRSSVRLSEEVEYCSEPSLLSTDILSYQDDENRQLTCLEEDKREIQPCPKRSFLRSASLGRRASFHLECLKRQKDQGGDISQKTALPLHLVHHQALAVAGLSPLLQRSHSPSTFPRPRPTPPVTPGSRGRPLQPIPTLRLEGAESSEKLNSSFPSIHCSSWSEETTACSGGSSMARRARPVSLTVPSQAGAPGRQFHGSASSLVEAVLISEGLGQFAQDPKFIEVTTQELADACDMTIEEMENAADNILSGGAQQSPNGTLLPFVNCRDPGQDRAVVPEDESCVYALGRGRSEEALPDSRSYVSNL

[8] = tested on: Sodium channel protein type 5 subunit alpha (site 2), SCN5A (r); format: binding, rat
[9] = tested on: Potassium Voltage-Gated Channel Kv non-selective, KCNQ1 (r); assay: IPP KCNQ1 binding (antagonist radioligand); set-up: species or system rat
[10] = tested on: Gamma-aminobutyric acid receptor subunit alpha-1 BZD site, GABRA1A (r); format: binding, rat; conditions: control diazepam
Tubulin (r) = assay: IPP Tubulin binding; set-up: species or system rat
[11] = PBK level L2; taken or scaled from references (median where several); ref [6],[7],[10],[19]; cited from earlier work
[12] = hepatic intrinsic clearance (Clint); conditions: PBK level L3; optimised against clinical data; per chemical [8],[9],[14],[16],[22],[24],[25],[29],[30],[32]
[13] = Assignment of risk classifications to benchmark chemical-exposure scenarios; conditions: for risk: Oral, Therapeutic, Tablet, from table S1
rat = conditions: rat, cited from earlier work
[14] = tested on: 63 targets with known safety liabilities; assay: In vitro pharmacological profiling (IPP) panel, screening at 10 or 100 µM and dose response, minimum IC50/AC50; format: biochemical; conditions: read-out: ipp_lowest_ac50_systemic PoD
HepG2 cells [15] = assay: Cell stress panel (CSP), 24 h, 8 concentrations, BIFROST global PoD; format: cell-based; conditions: HepG2; cell stress panel PoD
Experimental: Compounds were tested using the previously developed cell stress panel ([Hatherell et al. 2020]) and the expanded biomarker panel outlined in Middleton et al. HepG2 cells were treated with all compounds for 24 h across 8 concentrations prior to biomarker analysis. The same plate layout and number of replicates (3 biological and 2 technical) were used as previously for each assay within the panel.

[16] = PBK model plasma Cmax estimate (Gastroplus 9.8; levels L1, L2, L3); set-up: species or system human
[17] = target: Potassium voltage-gated channel subfamily H member 2 hERG, KCNH2 (h) (Homo sapiens, UniProt Q12809); conditions: human
Potassium voltage-gated channel subfamily H member 2 hERG, KCNH2 (h), sequence (Q12809 whole entry): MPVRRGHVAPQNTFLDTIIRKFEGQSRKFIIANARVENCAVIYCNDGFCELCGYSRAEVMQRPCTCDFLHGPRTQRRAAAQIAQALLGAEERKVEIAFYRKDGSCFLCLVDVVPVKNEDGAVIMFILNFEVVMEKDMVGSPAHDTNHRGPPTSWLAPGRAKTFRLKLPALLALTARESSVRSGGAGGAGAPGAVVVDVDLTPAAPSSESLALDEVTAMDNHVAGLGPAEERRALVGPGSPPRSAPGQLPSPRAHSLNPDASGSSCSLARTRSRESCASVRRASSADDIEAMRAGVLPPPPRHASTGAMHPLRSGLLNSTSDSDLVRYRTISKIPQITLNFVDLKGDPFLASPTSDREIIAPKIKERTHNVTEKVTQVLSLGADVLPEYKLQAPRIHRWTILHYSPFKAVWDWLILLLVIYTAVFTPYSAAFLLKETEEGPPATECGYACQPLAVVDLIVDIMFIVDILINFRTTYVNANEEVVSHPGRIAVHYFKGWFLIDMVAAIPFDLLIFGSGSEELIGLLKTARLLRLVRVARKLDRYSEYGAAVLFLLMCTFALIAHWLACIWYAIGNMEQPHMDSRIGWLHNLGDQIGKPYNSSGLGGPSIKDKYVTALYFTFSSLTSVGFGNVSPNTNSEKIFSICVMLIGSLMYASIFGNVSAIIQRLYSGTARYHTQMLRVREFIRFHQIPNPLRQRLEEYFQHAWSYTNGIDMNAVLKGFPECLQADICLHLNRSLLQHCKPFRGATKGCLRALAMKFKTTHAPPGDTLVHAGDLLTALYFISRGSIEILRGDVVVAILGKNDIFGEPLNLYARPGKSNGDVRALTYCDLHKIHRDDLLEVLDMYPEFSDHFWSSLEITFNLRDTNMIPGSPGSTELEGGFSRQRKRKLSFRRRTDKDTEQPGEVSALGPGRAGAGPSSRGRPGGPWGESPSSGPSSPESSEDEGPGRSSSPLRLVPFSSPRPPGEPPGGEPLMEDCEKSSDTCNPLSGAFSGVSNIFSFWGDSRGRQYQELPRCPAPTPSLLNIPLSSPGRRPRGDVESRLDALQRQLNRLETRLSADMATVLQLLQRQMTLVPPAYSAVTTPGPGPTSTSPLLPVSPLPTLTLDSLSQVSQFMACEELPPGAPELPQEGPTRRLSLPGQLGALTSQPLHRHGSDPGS

[18] = human
[19] = per chemical see Peff Reference, cited from earlier work
[20] = target: 5-hydroxytryptamine receptor 2B, HTR2B (h) (Homo sapiens, UniProt P41595)
5-hydroxytryptamine receptor 2B, HTR2B (h), sequence (P41595 whole entry): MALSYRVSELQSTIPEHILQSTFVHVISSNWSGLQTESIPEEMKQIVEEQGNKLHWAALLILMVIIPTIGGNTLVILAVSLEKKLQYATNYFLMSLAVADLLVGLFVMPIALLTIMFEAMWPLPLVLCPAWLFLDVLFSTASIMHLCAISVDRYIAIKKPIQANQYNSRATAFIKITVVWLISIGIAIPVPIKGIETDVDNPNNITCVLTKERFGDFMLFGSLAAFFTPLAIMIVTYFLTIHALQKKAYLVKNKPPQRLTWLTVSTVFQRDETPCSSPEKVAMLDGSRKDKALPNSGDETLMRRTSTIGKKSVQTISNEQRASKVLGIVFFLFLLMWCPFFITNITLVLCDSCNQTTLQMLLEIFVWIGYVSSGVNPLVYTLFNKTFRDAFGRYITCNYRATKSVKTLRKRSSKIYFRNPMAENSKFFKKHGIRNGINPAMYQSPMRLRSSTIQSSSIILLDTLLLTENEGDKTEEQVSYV

[21] = target: Tyrosine-protein kinase Lck, LCK (h) (Homo sapiens, UniProt P06239); assay: IPP LCK enzymatic activity; format: biochemical; conditions: Enzymatic activity; control staurosporine; read-out: IPP Dose Response PoD: LCK
Tyrosine-protein kinase Lck, LCK (h), sequence (P06239 whole entry): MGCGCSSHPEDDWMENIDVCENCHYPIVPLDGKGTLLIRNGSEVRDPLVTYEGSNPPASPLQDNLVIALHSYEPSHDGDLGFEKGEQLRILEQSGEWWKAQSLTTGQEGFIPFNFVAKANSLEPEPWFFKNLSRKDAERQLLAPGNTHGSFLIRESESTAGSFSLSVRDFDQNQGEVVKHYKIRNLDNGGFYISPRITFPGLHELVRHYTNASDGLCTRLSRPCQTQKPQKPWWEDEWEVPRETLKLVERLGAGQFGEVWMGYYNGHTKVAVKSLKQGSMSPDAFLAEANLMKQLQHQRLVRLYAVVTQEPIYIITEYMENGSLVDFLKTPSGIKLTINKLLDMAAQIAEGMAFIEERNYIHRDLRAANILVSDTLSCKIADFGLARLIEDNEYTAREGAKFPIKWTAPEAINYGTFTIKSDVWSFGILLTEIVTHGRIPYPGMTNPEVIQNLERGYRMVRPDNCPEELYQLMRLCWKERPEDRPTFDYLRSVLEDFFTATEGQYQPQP

[22] = 100 uM, * denotes assay interference (2-Amino-6-chloro-4-nitrophenol, HC Red 3)
[23] = IV bolus 4 mg, patients hospitalized with community-acquired pneumonia, calibration, ref Spoorenberg et al. 2014
[24] = Oral tablet 6 mg, fasted, 6 female healthy Asian, validation, ref Jobe et al. 2020
[25] = Oral tablet 6 mg, fasted, patients hospitalized with community-acquired pneumonia, validation, ref Spoorenberg et al. 2014
[26] = IPP screening at 10 uM, control CGS 19755
[27] = 10 uM, ligand/control Colchicine

**Q.** What does the source list for `C[C@@H]1C[C@H]2[C@@H]3CCC4=CC(=O)C=C[C@]4(C)[C@@]3(F)[C@@H](O)C[C@]2(C)[C@@]1(O)C(=O)CO` [Dexamethasone, 9-Fluoro-11beta,17,21-trihydroxy-16alpha-methylpregna-1,4-diene-3,20-dione]?
**A.** IPP screening %, Coactivator recruitment [1, 22]: 3.0%; Fup ([2]; PBK level L2): 26.3%; Fup ([2]; PBK level L3): 26.3%; Specific binding ([3]; IPP screening at 100 uM): -9.1%; Specific binding ([4]; IPP screening at 100 uM, control CGS 19755): 10.7%; pod_httr_bifrost PoD (HepaRG cells): 3.5452 µM; podl_path_minbmd PoD (HepaRG cells): 74.2662 µM; Reported AUC0-t [5, 23]: 507.3 ng·h/mL; Reported cmax [5, 23]: 0.0964 µg/mL; Reported tmax [5, 23]: 0 h; Reported AUC0-t [5, 24]: 689.3 ng·h/mL; Reported cmax [5, 24]: 0.0822 µg/mL; Reported tmax [5, 24]: 1.53 h; Reported AUC0-t [5, 25]: 746.6 ng·h/mL; Reported cmax [5, 25]: 0.0643 µg/mL; Reported tmax [5, 25]: 1.4 h; pod_httr_bifrost PoD (HepG2 cells [6]): 0.0003269 µM; podl_path_minbmd PoD (HepG2 cells [6]): 69.6957 µM; pod_httr_bifrost PoD (MCF7 cells): 9.79e-05 µM; podl_path_minbmd PoD (MCF7 cells): 6.367 µM; Specific binding [7]: -36.4%; Specific binding [8]: 11.2%; Specific binding ([9]; IPP screening at 100 uM, control α-dendrotoxin): -4.1%; Specific binding ([10]; IPP screening at 100 uM): 27.9%; IPP screening %, Specific binding (Tubulin (r); 100 uM, ligand/control Colchicine): -8.0%; Intrinsic Liver Clearance [11]: 107.8 L/h; Intrinsic Liver Clearance [12]: 23.37 L/h; Risk Classification ([13]; Oral tablet 0.5 mg/day): High risk; Risk Classification ([13]; Oral tablet 10 mg/day): High risk; risk ([13]; 0.5mg/day, Exp3): 1; risk ([13]; 10mg/day, Exp4): 1; PoD (NOAEL) (rat; endocrine toxicity study, ref ECFA ADI): 0.001 mg/kg bw/day; AC50 ([14]; lowest AC50 across IPP panel (systemic targets), cell_type -): 3.15 nM; pod_cell_stress PoD (HepG2 cells [15]): 14.5194 µM

**Q.** For `C[C@H]1O[C@@H](O[C@H]2[C@@H](O)C[C@H](O[C@H]3[C@@H](O)C[C@H](O[C@H]4CC[C@@]5(C)[C@H](CC[C@@H]6[C@@H]5C[C@@H](O)[C@]5(C)[C@@H](C7=CC(=O)OC7)CC[C@]65O)C4)O[C@@H]3C)O[C@@H]2C)C[C@H](O)[C@@H]1O` [Digoxin, 3beta-{[2,6-Dideoxy-beta-D-ribo-hexopyranosyl-(1->4)-2,6-dideoxy-beta-D-ribo-hexopyranosyl-(1->4)-2,6-dideoxy-beta-D-ribo-hexopyranosyl]oxy}-12beta,14-dihydroxy-5beta-card-20(22)-enolide], which “IPP screening %, Coactivator recruitment” value ([1]; 10 uM) is on record?
**A.** 1.0%

**Q.** What about the “L2 Cmax estimate underprediction of the L3 plasma Cmax” value ([16]; largest of any underprediction, printed with ∼) of the same molecule?
**A.** 30- to 50 fold

**Q.** And the “underprediction of the L3 result at L2 (Cmax)” value ([16]; therapeutic uses)?
**A.** ≥ 5 fold

**Q.** What about the Specific binding ([3]; IPP screening at 10 uM) of the same molecule?
**A.** 26.2%

**Q.** And the Specific binding [4, 26]?
**A.** -2.6%

**Q.** What about the “pod_httr_bifrost PoD” value (HepaRG cells) of the same molecule?
**A.** 0.01449 µM

**Q.** What about the “podl_path_minbmd PoD” value (HepaRG cells) of the same molecule?
**A.** 0.04151 µM

**Q.** And the “IPP screening %, Specific binding” value [17]?
**A.** -6.2%

**Q.** What about the “pod_httr_bifrost PoD” value (HepG2 cells [6]) of the same molecule?
**A.** 0.007046 µM

**Q.** And the “podl_path_minbmd PoD” value (HepG2 cells [6])?
**A.** 0.02695 µM

**Q.** And the “pod_httr_bifrost PoD” value (MCF7 cells)?
**A.** 0.003833 µM

**Q.** And the “podl_path_minbmd PoD” value (MCF7 cells)?
**A.** 0.02134 µM

**Q.** And the Specific binding [7]?
**A.** 0.7%

**Q.** What about the Specific binding [8] of the same molecule?
**A.** 19.6%

**Q.** And the Specific binding [9]?
**A.** -2.7%

**Q.** And the Specific binding ([10]; IPP screening at 10 uM)?
**A.** 11.3%

**Q.** And the “IPP screening %, Specific binding” value (Tubulin (r); [27])?
**A.** -7.0%

**Q.** And the “pod_cell_stress PoD” value (HepG2 cells [15])?
**A.** 0.0001773 µM

**Q.** Which risk [18] does the source give for `NS(=O)(=O)c1cc(C(=O)O)c(NCc2ccco2)cc1Cl` [Furosemide, 4-Chloro-2-{[(furan-2-yl)methyl]amino}-5-sulfamoylbenzoic acid] here?
**A.** 1

**Q.** And the Peff ([19]; PBK level L2, ref [3],[4],[11])?
**A.** 0.41 cm/s x E-04

**Q.** And the Peff ([19]; PBK level L3, ref [4],[11])?
**A.** 0.41 cm/s x E-04

**Q.** What about the “IPP screening %, Coactivator recruitment” value [1, 22] of the same molecule?
**A.** -1.0%

**Q.** And the Specific binding ([3]; IPP screening at 100 uM)?
**A.** 15.2%

**Q.** What about the Specific binding [4] of the same molecule?
**A.** 5.8%

**Q.** What about the “pod_httr_bifrost PoD” value (HepaRG cells) of the same molecule?
**A.** 0.2929 µM

**Q.** And the “podl_path_minbmd PoD” value (HepaRG cells)?
**A.** 1.613 µM

**Q.** What about the “pod_httr_bifrost PoD” value (HepG2 cells [6]) of the same molecule?
**A.** 3.253 µM

**Q.** And the “podl_path_minbmd PoD” value (HepG2 cells [6])?
**A.** 177.032 µM

**Q.** What about the “pod_httr_bifrost PoD” value (MCF7 cells) of the same molecule?
**A.** 72.7631 µM

**Q.** What about the “podl_path_minbmd PoD” value (MCF7 cells) of the same molecule?
**A.** 520.886 µM

**Q.** What about the “IPP screening %, Specific binding” value (Tubulin (r)) of the same molecule?
**A.** -4.0%

**Q.** What about the “PoD (NOEL)” value (rat; chronic, ref NTP study) of the same molecule?
**A.** 46.9 mg/kg bw/day

**Q.** And the AC50 [14]?
**A.** 1380 nM

**Q.** What about the “pod_cell_stress PoD” value (HepG2 cells [15]) of the same molecule?
**A.** 2.832 µM

**Q.** Which “leading IPP PoD (target)” value [20] does the source give for `COc1ccc(CCN(C)CCCC(C#N)(c2ccc(OC)c(OC)c2)C(C)C)cc1OC` (centres unmarked) [Verapamil Hydrochloride, 2-(3,4-Dimethoxyphenyl)-5-{[2-(3,4-dimethoxyphenyl)ethyl](methyl)amino}-2-(propan-2-yl)pentanenitrile--hydrogen chloride (1/1)] here?
**A.** antagonism of the serotonin 2B receptor

**Q.** What about the “IPP screening %, Coactivator recruitment” value ([1]; 10 uM) of the same molecule?
**A.** 1.0%

**Q.** What about the Specific binding [4, 26] of the same molecule?
**A.** 2.5%

**Q.** What about the IC50 [21] of the same molecule?
**A.** > 35800 nM

**Q.** What about the Specific binding [8] of the same molecule?
**A.** 74.6%

**Q.** And the Specific binding [9]?
**A.** 4.7%

**Q.** What about the Specific binding ([10]; IPP screening at 10 uM) of the same molecule?
**A.** -6.7%

**Q.** And the “IPP screening %, Specific binding” value (Tubulin (r); [27])?
**A.** 13.0%

**Q.** What about the “pod_cell_stress PoD” value (HepG2 cells [15]) of the same molecule?
**A.** 0.6383 µM

Reference: article PMC11879040, “Advancing systemic toxicity risk assessment: Evaluation of a NAM-based toolbox approach” (Toxicological Sciences, 2024)
